The compounds below were run on Escherichia coli (ATCC25922) or Staphylococcus aureus (ATCC25923) (assay: Antibacterial MIC, microdilution method in Mueller-Hinton medium). Details: Escherichia coli, 18 h, MIC in E. coli or S. aureus; two-fold serial dilutions 64 to 0.5 μg/ml in duplicate; 18 hours of incubation at 35° C.; read-out: Potency (MIC).
Assay type: cell-based
Summary of the method: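 Read after 18 h incubation at 35° C, MIC is the lowest compound level that blocked growth. Compounds were tested in duplicate over 64–0.5 μg/ml two-fold dilutions using Mueller-Hinton microdilution per NCCLS standard.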

MIC [µg/mL]	Compound
< 64	Cl.NS(=O)(=O)c1ccc(NC(=O)CC(=O)c2ccc(Nc3nc(N4CCCCC4)nc(N4CCCCC4)n3)cc2)cc1 [N-{4-[2-(4-sulfamoyl-phenylcarbamoyl)-acetyl]-phenyl}-44,6-Bis-((3R,5S)-3,5-diamino-piperidin-1-yl)-[1,3,5]triazine-2-amine]
< 64	Cc1cc(=O)oc2cc(Nc3nc(N4C[C@H](N)C[C@H](N)C4)nc(N4CCC[C@@H](O)C4)n3)ccc12 [7-[4-((3R,5S)-3,5-Diamino-piperidin-1-yl)-6-((R)-3-hydroxy-piperidin-1-yl)-[1,3,5]triazin-2-ylamino]-4-methyl-chromen-2-one]

Same assay, conditions: Escherichia coli, 18 h, read-out: Potency (MIC)

Compound	MIC [µg/mL]
NC[C@@H]1C[C@H](N)CN1c1nc(Nc2ccc(S(=O)(=O)Nc3ccc4cn[nH]c4c3)cc2)nc(N2C[C@H](N)C[C@H](N)C2)n1 [4-[4-((2S,4S)-4-Amino-2-aminomethyl-pyrrolidin-1-yl)-6-((3R,5S)-3,5-diamino-piperidin-1-yl)-[1,3,5]triazin-2-ylamino]-N-(1H-indazol-6-yl)-benzenesulfonamide]	> 64
N[C@@H]1C[C@H](N)CN(c2nc(Nc3ccc(NC(=O)c4ccc(Cl)cc4)c(O)c3)nc(N3CCNCC3)n2)C1 [4-Chloro-N-{4-[4-((3S,5R)-3,5-diamino-piperidin-1-yl)-6-piperazin-1-yl-[1,3,5]triazin-2-ylamino]-2-hydroxy-phenyl}-benzamide]	< 16
N[C@@H]1C[C@H](N)CN(c2nc(Nc3ccc(NC(=O)c4ccc(Cl)cc4)c(O)c3)nc(N3CCN(c4ccncc4)CC3)n2)C1 [4-Chloro-N-{4-[4-((3S,5R)-3,5-diamino-piperidin-1-yl)-6-(4-pyridin-4-yl-piperazin-1-yl)-[1,3,5]triazin-2-ylamino]-2-hydroxy-phenyl}-benzamide]	< 64
N[C@@H]1C[C@H](N)CN(c2nc(Nc3ccc(S(=O)(=O)Nc4ccc5cn[nH]c5c4)cc3)nc(N3CCC[C@@H](O)C3)n2)C1 [4-[4-((3S,5R)-3,5-Diamino-piperidin-1-yl)-6-((R)-3-hydroxy-piperidin-1-yl)-[1,3,5]triazin-2-ylamino]-N-(1H-indazol-6-yl)-benzenesulfonamide]	> 64
COc1ccc(NC(=O)c2cccc(C)c2O)c(Nc2nc(N3C[C@H](N)C[C@H](N)C3)nc(N3C[C@H](N)C[C@H](N)C3)n2)c1 [N-[2-(2-hydroxy-3-methyl-benzoylamino)-5-methoxy-phenyl]-4,6-Bis-((3R,5S)-3,5-diamino-piperidin-1-yl)-[1,3,5]triazine-2-amine]	> 64
COc1ccc(OC)c(NC(=O)c2ccc(Nc3nc(N4C[C@H](N)C[C@H](N)C4)nc(N4C[C@H](N)C[C@H](N)C4)n3)cc2O)c1 [N-[4-(2,5-dimethoxy-phenylcarbamoyl)-3-hydroxy-phenyl]-4,6-Bis-((3R,5S)-3,5-diamino-piperidin-1-yl)-[1,3,5]triazine-2-amine]	< 16
N[C@@H]1C[C@H](N)CN(c2nc(Nc3ccc(C(=O)Nc4ccc(Cl)cc4)c(O)c3)nc(N3C[C@H](N)C[C@H](N)C3)n2)C1 [N-[4-(4-chloro-phenylcarbamoyl)-3-hydroxy-phenyl]-4,6-Bis-((3R,5S)-3,5-diamino-piperidin-1-yl)-[1,3,5]triazine-2-amine]	< 64
N[C@@H]1C[C@H](N)CN(c2nc(Nc3ccc(C(=O)Nc4cccc(C(F)(F)F)c4)c(O)c3)nc(N3C[C@H](N)C[C@H](N)C3)n2)C1 [N-[3-hydroxy-4-(3-trifluoromethyl-phenylcarbamoyl)-phenyl]-4,6-Bis-((3R,5S)-3,5-diamino-piperidin-1-yl)-[1,3,5]triazine-2-amine]	< 16
Cc1cc(Nc2nc(N3C[C@H](N)C[C@H](N)C3)nc(N3C[C@H](N)C[C@H](N)C3)n2)ccc1NC(=O)c1ccc(Cl)cc1O [N-[4-(4-chloro-2-hydroxy-benzoylamino)-3-methyl-phenyl]-4,6-Bis-((3R,5S)-3,5-diamino-piperidin-1-yl)-[1,3,5]triazine-2-amine]	< 16
